The values that follow are results of earlier work, collected in patent publication US20040029723A1, “Novel aminophosphonium compounds” (Clariant GmbH, priority 1999, published 2004).

For the series the following is noted: background statement, no test or data described.

Regarding `CCN(CC)[P+](N(CC)CC)(N(CC)CC)N(CC)CC.[Br-]` [Tetrakis(diethylamino)phosphonium Bromide], the dermal toxicity entry was “very high”.
